# ChEMBL document CHEMBL5465560, “Selectivity Literature for EUbOPEN Chemogenomic Library” (2024)
# Legend:
# [1] = molecular target: Sodium channel protein type 2 subunit alpha (Homo sapiens) (UniProt Q99250); experiment: Selectivity interaction (Panel of non-epigenetic targets (kinases, GPCRs, ion channels, and transporters, Eurofins) ) EUB0000271b SCN2A; conditions: at 1 µM
# [2] = Selectivity interaction (Ambit KINOMEscan and KiNATiv profiling in Jurkat cells) EUB0000090b PKNB; conditions: Selectivity number of off-targets 9; Selectivity number of targets 456; Source Knowledge https://www.nature.com/articles/nchembio.2166; at 1 µM
# [3] = molecular target: STE20/SPS1-related proline-alanine-rich protein kinase (Homo sapiens) (UniProt Q9UEW8); experiment: Selectivity interaction (KinomeScan (DiscoverX)) EUB0000618a STK39; conditions: at 10 µM
# [4] = molecular target: T1, Ephrin type-B receptor 1 (Homo sapiens) (UniProt P54762); experiment: Selectivity interaction (Upstate Kinase Profiler service (Millipore)) EUB0000056c EPHB1; conditions: at 1 µM
# T1 sequence (whole entry): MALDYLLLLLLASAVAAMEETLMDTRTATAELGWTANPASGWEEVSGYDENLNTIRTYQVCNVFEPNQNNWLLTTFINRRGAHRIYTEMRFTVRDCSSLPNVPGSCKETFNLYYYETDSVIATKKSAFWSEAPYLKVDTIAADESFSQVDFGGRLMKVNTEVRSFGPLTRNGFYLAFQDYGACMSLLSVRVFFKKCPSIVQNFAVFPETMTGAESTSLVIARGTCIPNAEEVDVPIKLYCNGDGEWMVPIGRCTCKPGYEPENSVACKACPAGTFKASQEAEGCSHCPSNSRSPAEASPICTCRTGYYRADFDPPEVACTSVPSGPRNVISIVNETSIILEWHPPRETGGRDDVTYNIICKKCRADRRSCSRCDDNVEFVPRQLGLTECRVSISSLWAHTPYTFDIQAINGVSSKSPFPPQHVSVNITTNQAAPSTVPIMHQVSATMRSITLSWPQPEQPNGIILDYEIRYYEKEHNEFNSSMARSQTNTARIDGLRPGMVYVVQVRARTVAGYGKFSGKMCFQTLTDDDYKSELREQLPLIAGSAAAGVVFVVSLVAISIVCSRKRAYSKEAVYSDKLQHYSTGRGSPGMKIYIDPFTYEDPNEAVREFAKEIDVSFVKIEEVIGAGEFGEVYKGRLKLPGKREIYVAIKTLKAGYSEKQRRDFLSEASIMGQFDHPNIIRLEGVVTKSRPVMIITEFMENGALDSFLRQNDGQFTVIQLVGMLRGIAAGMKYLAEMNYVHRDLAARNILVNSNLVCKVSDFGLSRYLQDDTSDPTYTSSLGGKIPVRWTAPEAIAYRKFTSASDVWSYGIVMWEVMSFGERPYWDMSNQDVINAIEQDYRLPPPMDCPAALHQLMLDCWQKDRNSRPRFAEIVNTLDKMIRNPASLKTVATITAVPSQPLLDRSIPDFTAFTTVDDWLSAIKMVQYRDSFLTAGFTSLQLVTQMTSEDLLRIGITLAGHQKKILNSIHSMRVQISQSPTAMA
# [5] = molecular target: Tyrosine-protein kinase SYK (Homo sapiens, UniProt P43405); experiment: Selectivity interaction (ActivX KiNativ screen (kinase selectivity in THP-1 cell lysates)) EUB0000639a SYK; type: subcellular; conditions: lysate, at 0.2 µM
# [6] = test system: Phosphatidylinositol 4,5-bisphosphate 3-kinase catalytic subunit alpha isoform (Homo sapiens), P42336 [E545A]; experiment: (§1) Selectivity interaction (KinomeScan (DiscoverX)) EUB0000666a PIK3CA; conditions: at 10 µM
# [7] = test system: Phosphatidylinositol 4,5-bisphosphate 3-kinase catalytic subunit alpha isoform (Homo sapiens), P42336 [H1047L]; experiment: as §1; conditions: at 10 µM
# [8] = test system: Phosphatidylinositol 4,5-bisphosphate 3-kinase catalytic subunit alpha isoform (Homo sapiens), P42336 [E542K]; experiment: as §1; conditions: at 10 µM
# [9] = test system: Phosphatidylinositol 4,5-bisphosphate 3-kinase catalytic subunit alpha isoform (Homo sapiens), P42336 [I800L]; experiment: as §1; conditions: at 10 µM
# [10] = test system: Phosphatidylinositol 4,5-bisphosphate 3-kinase catalytic subunit alpha isoform (Homo sapiens), P42336 [C420R]; experiment: as §1; conditions: at 10 µM
# [11] = test system: Phosphatidylinositol 4,5-bisphosphate 3-kinase catalytic subunit alpha isoform (Homo sapiens), P42336 [H1047Y]; experiment: as §1; conditions: at 10 µM
# [12] = molecular target: Phosphatidylinositol 4,5-bisphosphate 3-kinase catalytic subunit alpha isoform (Homo sapiens) (UniProt P42336); experiment: as §1; conditions: at 10 µM
# [13] = test system: Phosphatidylinositol 4,5-bisphosphate 3-kinase catalytic subunit alpha isoform (Homo sapiens), P42336 [M1043I]; experiment: as §1; conditions: at 10 µM
# [14] = test system: Phosphatidylinositol 4,5-bisphosphate 3-kinase catalytic subunit alpha isoform (Homo sapiens), P42336 [E545K]; experiment: as §1; conditions: at 10 µM
# [15] = test system: Phosphatidylinositol 4,5-bisphosphate 3-kinase catalytic subunit alpha isoform (Homo sapiens), P42336 [Q546K]; experiment: as §1; conditions: at 10 µM
# [16] = molecular target: T2, Ephrin type-A receptor 8 (Homo sapiens) (UniProt P29322); experiment: Selectivity interaction (KinomeScan (DiscoverX)) EUB0000092b EPHA8; conditions: at 10 µM
# T2 sequence (whole entry): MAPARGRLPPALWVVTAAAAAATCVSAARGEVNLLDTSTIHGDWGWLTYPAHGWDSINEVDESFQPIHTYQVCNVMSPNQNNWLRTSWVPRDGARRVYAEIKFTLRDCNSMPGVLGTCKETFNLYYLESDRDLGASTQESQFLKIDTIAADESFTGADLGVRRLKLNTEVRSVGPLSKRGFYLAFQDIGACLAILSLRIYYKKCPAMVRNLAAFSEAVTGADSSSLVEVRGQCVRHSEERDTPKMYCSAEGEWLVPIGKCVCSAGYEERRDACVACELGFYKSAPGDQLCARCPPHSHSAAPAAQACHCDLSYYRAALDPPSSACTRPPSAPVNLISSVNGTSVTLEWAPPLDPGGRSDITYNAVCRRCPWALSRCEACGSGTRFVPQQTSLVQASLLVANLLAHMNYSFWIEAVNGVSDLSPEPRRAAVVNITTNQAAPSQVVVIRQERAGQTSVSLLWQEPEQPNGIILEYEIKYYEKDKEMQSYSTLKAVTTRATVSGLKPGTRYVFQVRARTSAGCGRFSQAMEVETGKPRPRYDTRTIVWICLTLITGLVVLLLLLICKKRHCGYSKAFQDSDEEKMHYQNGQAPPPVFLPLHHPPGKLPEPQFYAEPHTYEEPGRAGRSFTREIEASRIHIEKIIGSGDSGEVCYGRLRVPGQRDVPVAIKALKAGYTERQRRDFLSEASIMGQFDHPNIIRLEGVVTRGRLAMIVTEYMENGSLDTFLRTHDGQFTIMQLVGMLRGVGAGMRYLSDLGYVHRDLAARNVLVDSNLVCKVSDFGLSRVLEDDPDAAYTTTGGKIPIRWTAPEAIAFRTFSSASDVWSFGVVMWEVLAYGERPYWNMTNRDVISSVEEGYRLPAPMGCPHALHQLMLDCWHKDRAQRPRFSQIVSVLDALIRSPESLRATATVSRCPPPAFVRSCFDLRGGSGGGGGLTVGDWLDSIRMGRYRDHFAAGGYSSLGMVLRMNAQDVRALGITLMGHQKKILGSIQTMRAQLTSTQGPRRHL
# Phosphatidylinositol 4,5-bisphosphate 3-kinase catalytic subunit alpha isoform (Homo sapiens), P42336 [H1047L], sequence (P42336 whole entry H1047L, canonical isoform): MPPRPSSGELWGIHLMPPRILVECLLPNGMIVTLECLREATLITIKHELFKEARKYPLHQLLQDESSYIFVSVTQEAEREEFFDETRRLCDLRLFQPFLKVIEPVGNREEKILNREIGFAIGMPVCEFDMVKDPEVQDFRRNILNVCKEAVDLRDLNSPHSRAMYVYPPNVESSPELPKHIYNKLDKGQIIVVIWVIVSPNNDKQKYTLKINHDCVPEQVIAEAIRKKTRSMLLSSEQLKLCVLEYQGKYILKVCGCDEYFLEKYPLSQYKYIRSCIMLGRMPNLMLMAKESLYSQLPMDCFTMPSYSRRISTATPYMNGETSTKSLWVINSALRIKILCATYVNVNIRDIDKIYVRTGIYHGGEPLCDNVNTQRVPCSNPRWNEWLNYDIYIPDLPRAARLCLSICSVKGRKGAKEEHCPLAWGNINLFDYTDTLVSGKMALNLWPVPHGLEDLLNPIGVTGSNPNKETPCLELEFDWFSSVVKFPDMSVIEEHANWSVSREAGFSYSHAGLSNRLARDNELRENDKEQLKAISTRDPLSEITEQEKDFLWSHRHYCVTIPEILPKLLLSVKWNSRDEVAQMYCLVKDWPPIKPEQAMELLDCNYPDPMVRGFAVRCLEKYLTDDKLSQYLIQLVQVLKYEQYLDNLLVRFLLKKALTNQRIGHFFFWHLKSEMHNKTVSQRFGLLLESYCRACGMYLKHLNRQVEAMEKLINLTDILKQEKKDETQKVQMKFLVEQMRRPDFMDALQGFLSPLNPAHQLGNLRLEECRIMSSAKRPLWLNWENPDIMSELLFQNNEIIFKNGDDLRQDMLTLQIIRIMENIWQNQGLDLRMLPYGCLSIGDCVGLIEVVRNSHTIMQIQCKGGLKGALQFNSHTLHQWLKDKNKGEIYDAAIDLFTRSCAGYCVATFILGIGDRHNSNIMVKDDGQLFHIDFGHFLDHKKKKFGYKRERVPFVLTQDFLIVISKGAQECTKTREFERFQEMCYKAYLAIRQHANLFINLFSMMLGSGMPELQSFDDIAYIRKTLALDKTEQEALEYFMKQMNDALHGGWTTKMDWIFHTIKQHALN
# Phosphatidylinositol 4,5-bisphosphate 3-kinase catalytic subunit alpha isoform (Homo sapiens), P42336 [H1047Y], sequence (P42336 whole entry H1047Y, canonical isoform): as the sequence (P42336 whole entry H1047L, canonical isoform) above, with L1047Y counted along it
# Phosphatidylinositol 4,5-bisphosphate 3-kinase catalytic subunit alpha isoform (Homo sapiens), P42336 [E542K], sequence (P42336 whole entry E542K, canonical isoform): as the sequence (P42336 whole entry H1047L, canonical isoform) above, with E542K, L1047H counted along it
# Phosphatidylinositol 4,5-bisphosphate 3-kinase catalytic subunit alpha isoform (Homo sapiens), P42336 [I800L], sequence (P42336 whole entry I800L, canonical isoform): as the sequence (P42336 whole entry H1047L, canonical isoform) above, with I800L, L1047H counted along it
# Phosphatidylinositol 4,5-bisphosphate 3-kinase catalytic subunit alpha isoform (Homo sapiens), P42336 [E545A], sequence (P42336 whole entry E545A, canonical isoform): as the sequence (P42336 whole entry H1047L, canonical isoform) above, with E545A, L1047H counted along it
# Phosphatidylinositol 4,5-bisphosphate 3-kinase catalytic subunit alpha isoform (Homo sapiens), sequence (P42336 whole entry, canonical isoform): as the sequence (P42336 whole entry H1047L, canonical isoform) above, with L1047H counted along it
# Sodium channel protein type 2 subunit alpha (Homo sapiens), sequence (Q99250 whole entry, looked up): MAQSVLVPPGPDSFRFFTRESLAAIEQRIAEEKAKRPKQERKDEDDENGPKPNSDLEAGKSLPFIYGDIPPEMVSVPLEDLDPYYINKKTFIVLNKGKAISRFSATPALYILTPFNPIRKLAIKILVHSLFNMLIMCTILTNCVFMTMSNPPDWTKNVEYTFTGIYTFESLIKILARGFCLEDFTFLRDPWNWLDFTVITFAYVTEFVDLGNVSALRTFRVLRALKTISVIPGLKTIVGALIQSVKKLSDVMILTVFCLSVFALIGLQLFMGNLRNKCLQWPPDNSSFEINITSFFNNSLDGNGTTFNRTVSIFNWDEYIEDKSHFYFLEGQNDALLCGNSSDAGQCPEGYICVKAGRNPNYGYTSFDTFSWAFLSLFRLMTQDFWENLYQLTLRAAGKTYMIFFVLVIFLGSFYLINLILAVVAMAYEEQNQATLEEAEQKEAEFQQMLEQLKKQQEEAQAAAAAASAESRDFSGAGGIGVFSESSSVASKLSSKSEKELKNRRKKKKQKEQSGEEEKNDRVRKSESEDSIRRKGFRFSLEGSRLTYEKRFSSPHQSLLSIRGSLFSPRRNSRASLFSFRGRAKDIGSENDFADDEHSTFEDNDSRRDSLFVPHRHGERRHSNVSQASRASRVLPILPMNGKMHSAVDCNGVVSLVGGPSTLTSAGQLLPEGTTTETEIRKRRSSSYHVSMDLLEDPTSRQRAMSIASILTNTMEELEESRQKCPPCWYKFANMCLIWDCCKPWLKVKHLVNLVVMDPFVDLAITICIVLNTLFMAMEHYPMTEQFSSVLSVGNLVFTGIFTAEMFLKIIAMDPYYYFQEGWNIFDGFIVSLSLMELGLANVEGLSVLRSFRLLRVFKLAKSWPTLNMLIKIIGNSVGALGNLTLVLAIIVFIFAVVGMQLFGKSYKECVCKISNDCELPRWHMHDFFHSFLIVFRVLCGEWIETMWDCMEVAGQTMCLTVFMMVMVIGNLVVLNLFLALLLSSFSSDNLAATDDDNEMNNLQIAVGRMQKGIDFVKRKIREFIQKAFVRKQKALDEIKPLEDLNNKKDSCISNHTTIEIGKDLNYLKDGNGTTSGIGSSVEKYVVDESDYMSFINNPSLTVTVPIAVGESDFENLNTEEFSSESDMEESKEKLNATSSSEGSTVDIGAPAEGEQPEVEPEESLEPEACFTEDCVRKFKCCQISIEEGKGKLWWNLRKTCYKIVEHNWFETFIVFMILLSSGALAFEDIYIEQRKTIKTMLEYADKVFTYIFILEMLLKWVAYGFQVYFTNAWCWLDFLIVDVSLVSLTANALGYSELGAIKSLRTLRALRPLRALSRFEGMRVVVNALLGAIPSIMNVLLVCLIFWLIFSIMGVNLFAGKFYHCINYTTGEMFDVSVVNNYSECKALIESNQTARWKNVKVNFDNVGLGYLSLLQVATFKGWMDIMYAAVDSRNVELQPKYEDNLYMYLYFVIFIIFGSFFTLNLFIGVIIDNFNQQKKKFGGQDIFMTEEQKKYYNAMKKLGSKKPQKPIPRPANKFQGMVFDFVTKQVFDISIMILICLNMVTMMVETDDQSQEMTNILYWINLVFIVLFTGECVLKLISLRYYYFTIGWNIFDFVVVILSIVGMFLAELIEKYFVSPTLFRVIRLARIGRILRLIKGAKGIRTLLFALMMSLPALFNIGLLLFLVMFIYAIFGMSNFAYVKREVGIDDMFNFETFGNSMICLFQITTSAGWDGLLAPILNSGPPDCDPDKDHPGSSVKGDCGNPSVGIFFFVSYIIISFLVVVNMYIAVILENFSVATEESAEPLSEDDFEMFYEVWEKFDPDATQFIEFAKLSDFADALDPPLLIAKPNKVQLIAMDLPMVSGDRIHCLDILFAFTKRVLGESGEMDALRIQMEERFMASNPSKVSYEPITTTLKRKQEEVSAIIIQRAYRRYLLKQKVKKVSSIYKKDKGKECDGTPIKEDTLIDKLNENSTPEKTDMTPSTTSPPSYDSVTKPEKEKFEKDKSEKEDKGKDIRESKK
# Phosphatidylinositol 4,5-bisphosphate 3-kinase catalytic subunit alpha isoform (Homo sapiens), P42336 [Q546K], sequence (P42336 whole entry Q546K, canonical isoform): as the sequence (P42336 whole entry H1047L, canonical isoform) above, with Q546K, L1047H counted along it
# Phosphatidylinositol 4,5-bisphosphate 3-kinase catalytic subunit alpha isoform (Homo sapiens), P42336 [E545K], sequence (P42336 whole entry E545K, canonical isoform): as the sequence (P42336 whole entry H1047L, canonical isoform) above, with E545K, L1047H counted along it
# Phosphatidylinositol 4,5-bisphosphate 3-kinase catalytic subunit alpha isoform (Homo sapiens), P42336 [M1043I], sequence (P42336 whole entry M1043I, canonical isoform): as the sequence (P42336 whole entry H1047L, canonical isoform) above, with M1043I, L1047H counted along it
# Phosphatidylinositol 4,5-bisphosphate 3-kinase catalytic subunit alpha isoform (Homo sapiens), P42336 [C420R], sequence (P42336 whole entry C420R, canonical isoform): as the sequence (P42336 whole entry H1047L, canonical isoform) above, with C420R, L1047H counted along it
smiles,measurement,setting,value
Cc1cc(C)cc([C@@H]2c3cc(C)ccc3NC(=O)CN2C(=O)c2ccc(Br)s2)c1,% of inhibition,[1],-22%
CN(C)C/C=C/C(=O)Nc1ccc(C(=O)N2CCCC(Nc3ncc(Cl)c(-c4c[nH]c5ccccc45)n3)C2)cc1 (stereo unspecified),% of control,[2],38%
O[C@H]1CC[C@H](Nc2ncc3nc(Nc4c(F)cc(F)cc4F)n([C@H]4CCOC4)c3n2)CC1,% of control,[3],100%
Cc1ccc(-c2ccc3c(ccc4sc5c(c43)NC[C@@H](C)NC5=O)n2)cn1,% of inhibition,[4],9%
CC[C@@H]1[C@H](F)C(=O)N[C@@H]1COc1nccc2cc(C(N)=O)c(OC)cc12 [ZIMLOVISERTIB],% of inhibition,[5],9.3%
O=C(NOC[C@H](O)CO)c1ccc(F)c(F)c1Nc1ccc(I)cc1F,% of control,[6],45%
same,% of control,[7],45%
same,% of control,[8],57%
same,% of control,[9],33%
same,% of control,[10],50%
same,% of control,[11],57%
same,% of control,[12],56%
same,% of control,[13],42%
same,% of control,[14],53%
same,% of control,[15],41%
CCC(=O)N1CCN(c2ccc(-n3c(=O)ccc4cnc5ccc(-c6cnc7ccccc7c6)cc5c43)cc2C(F)(F)F)CC1,% of control,[16],71%
